Measured values reported in the NIST ThermoML archive (doi:10.1021/je201299u).
± gives the expanded uncertainty stated by the source.

Conditions: Liquid, Ebulliometric method (Recirculating still)

## C [methane]
110.01 K
  vapor or sublimation pressure: 88.2 ± 1.4 kPa
112.98 K
  vapor or sublimation pressure: 112.74 ± 1.4 kPa
114.99 K
  vapor or sublimation pressure: 132.11 ± 1.4 kPa
115.07 K
  vapor or sublimation pressure: 134.08 ± 1.3 kPa
117 K
  vapor or sublimation pressure: 153.92 ± 1.4 kPa
118.99 K
  vapor or sublimation pressure: 178.11 ± 1.5 kPa
120.11 K
  vapor or sublimation pressure: 194.65 ± 1.3 kPa
120.96 K
  vapor or sublimation pressure: 204.78 ± 1.5 kPa
123.01 K
  vapor or sublimation pressure: 235.61 ± 1.6 kPa
130.15 K
  vapor or sublimation pressure: 374.77 ± 1.4 kPa
135.09 K
  vapor or sublimation pressure: 496.11 ± 1.4 kPa

## N#N [nitrogen]
110.01 K
  vapor or sublimation pressure: 1466.7 ± 6 kPa
112.98 K
  vapor or sublimation pressure: 1735.2 ± 7 kPa
114.99 K
  vapor or sublimation pressure: 1936 ± 7.8 kPa
117 K
  vapor or sublimation pressure: 2153.3 ± 8.7 kPa
118.99 K
  vapor or sublimation pressure: 2385.7 ± 9.6 kPa
120.96 K
  vapor or sublimation pressure: 2633.9 ± 11 kPa
123.01 K
  vapor or sublimation pressure: 2913 ± 12 kPa
